In ChEMBL document CHEMBL5500375, “Design, synthesis, and evaluation of N1,N3-dialkyldioxonaphthoimidazoliums as antibacterial agents against methicillin-resistant Staphylococcus aureus” (Eur J Med Chem, 2024):
The source made the active and inactive calls. No cut-off for these calls is given here.

Legend:
Staphylococcus aureus [1] = experiment: Antibacterial agents against methicillin-resistant Staphylococcus aureus USA300 assessed as absence of growth measured after 18 hrs by micro-dilution method; type: functional
Staphylococcus aureus [2] = experiment: Antibacterial agents against methicillin-sensitive Staphylococcus aureus Newman assessed as absence of growth measured after 18 hrs by micro-dilution method; type: functional
Staphylococcus aureus [3] = experiment: Antibacterial agents against c5-resistant mutant of methicillin-resistant Staphylococcus aureus SA3 m1 assessed as absence of growth measured after 18 hrs by micro-dilution method; type: functional
Staphylococcus aureus [4] = experiment: Antibacterial agents against c5-resistant mutant of methicillin-resistant Staphylococcus aureus SA3 m2 assessed as absence of growth measured after 18 hrs by micro-dilution method; type: functional
Staphylococcus aureus [5] = experiment: Antibacterial agents against c5-resistant mutant of methicillin-resistant Staphylococcus aureus SA3 m3 assessed as absence of growth measured after 18 hrs by micro-dilution method; type: functional
[6] = Cytotoxicity against human HEK293 cells assessed as cell survival measured after 72 hrs incubation by Cell Titer-Glo luminescent assay; type: toxicity, cell-based
[7] = Cytotoxicity against human HDFa cells assessed as cell survival measured after 72 hrs incubation by Cell Titer-Glo luminescent assay; type: toxicity, cell-based
[8] = Metabolic stability in human liver microsomes assessed as half life at 2 uM preincubated for 5 mins followed by NADPH addition and measured for 35 mins by LC/MS analysis; type: ADME, Microsome; conditions: preincubation 5 min
[9] = Metabolic stability in human liver microsomes assessed as intrinsic clearance at 2 uM preincubated for 5 mins followed by NADPH addition and measured for 35 mins by LC/MS analysis; type: ADME, Microsome; conditions: read-out: CLH
Staphylococcus aureus [10] = experiment: Antibacterial agents against methicillin-sensitive Staphylococcus aureus SA1 assessed as absence of growth at 0.19 ug/ml measured after overnight incubation under anaerobic condition in presence of N-acetylcysteine by micro-dilution method; type: functional, organism-based; conditions: dose 0.19 µg/ml
Staphylococcus aureus [11] = experiment: Antibacterial agents against methicillin-resistant Staphylococcus aureus SA3 assessed as absence of growth at 0.19 ug/ml measured after overnight incubation under anaerobic condition in presence of N-acetylcysteine by micro-dilution method; type: functional, organism-based; conditions: dose 0.19 µg/ml
Staphylococcus aureus [12] = experiment: Antibacterial agents against methicillin-resistant Staphylococcus aureus USA300 assessed as absence of growth at 0.19 ug/ml measured after overnight incubation under anaerobic condition in presence of N-acetylcysteine by micro-dilution method; type: functional, organism-based; conditions: dose 0.19 µg/ml
Staphylococcus aureus [13] = experiment: Antibacterial agents against c5-resistant mutant of methicillin-resistant Staphylococcus aureus SA3 m1 assessed as absence of growth at 0.19 ug/ml measured after overnight incubation under anaerobic condition in presence of N-acetylcysteine by micro-dilution method; type: functional, organism-based; conditions: dose 0.19 µg/ml
Staphylococcus aureus [14] = experiment: Antibacterial agents against c5-resistant mutant of methicillin-resistant Staphylococcus aureus SA3 m4 assessed as absence of growth at 0.19 ug/ml measured after overnight incubation under anaerobic condition in presence of N-acetylcysteine by micro-dilution method; type: functional, organism-based; conditions: dose 0.19 µg/ml
Staphylococcus aureus [15] = experiment: Antibacterial agents against c5-resistant mutant of methicillin-resistant Staphylococcus aureus SA3 m6 assessed as absence of growth at 0.19 ug/ml measured after overnight incubation under anaerobic condition in presence of N-acetylcysteine by micro-dilution method; type: functional, organism-based; conditions: dose 0.19 µg/ml
Bacillus subtilis = experiment: Antibacterial agents against Bacillus subtilis PS380 assessed as absence of growth at 0.19 ug/ml measured after overnight incubation under anaerobic condition in presence of N-acetylcysteine by micro-dilution method; type: functional, organism-based; conditions: dose 0.19 µg/ml
Staphylococcus aureus [16] = experiment: Induction of ROS generation in methicillin-resistant Staphylococcus aureus SA3 using hydroxyphenyl fluorescein at 0.19 ug/ml under anaerobic condition; type: functional, organism-based; conditions: dose 0.19 µg/ml
Staphylococcus aureus [17] = experiment: Anti-biofilim activity against methicillin-sensitive Staphylococcus aureus SA1 assessed decrease in biofilm growth at 1 to 10 times of MIC concentration measured after 12 to 24 hrs incubation; type: functional, organism-based; conditions: time 12-24 hrs
Staphylococcus aureus [18] = experiment: Anti-biofilim activity against methicillin-sensitive Staphylococcus aureus Newman assessed decrease in biofilm growth at 1 to 10 times of MIC concentration measured after 12 to 24 hrs incubation; type: functional, organism-based; conditions: time 12-24 hrs
Pseudomonas aeruginosa [19] = experiment: Antibacterial agents against gram negative Pseudomonas aeruginosa PA14 assessed as reduction in colony forming unit at 0.78 ug/ml measured upto 10 hrs by LB agar medium method; type: functional, organism-based; conditions: dose 0.78 µg/ml
Escherichia coli [20] = experiment: Antibacterial agents against gram negative Escherichia coli MG1655 assessed as reduction in colony forming unit at 0.78 ug/ml measured upto 10 hrs by LB agar medium method; type: functional, organism-based; conditions: dose 0.78 µg/ml
Escherichia coli [21] = experiment: Antibacterial agents against gram negative Escherichia coli MG1655 assessed as reduction in colony forming unit at 0.78 ug/ml measured upto 10 hrs in presence of 0.05 to 0.2 ug/ml Polymyxin B by LB agar medium method; type: functional, organism-based; conditions: dose 0.78 µg/ml
Pseudomonas aeruginosa [22] = experiment: Antibacterial agents against gram negative Pseudomonas aeruginosa PA14 assessed as reduction in colony forming unit at 0.78 ug/ml measured upto 10 hrs in presence of 0.2 ug/ml Polymyxin B by LB agar medium method; type: functional; conditions: dose 0.78 µg/ml
Pseudomonas aeruginosa [23] = experiment: Antibacterial agents against gram negative Pseudomonas aeruginosa PA14 assessed as reduction in colony forming unit at 0.78 ug/ml in presence of 0.1 to 0.2 ug/ml Polymyxin B by LB agar medium method; type: functional, organism-based; conditions: dose 0.78 µg/ml, time 0-10 hrs, TDE = time-dependent effect
Escherichia coli [24] = experiment: Antibacterial agents against gram negative Escherichia coli MG1655 assessed as reduction in colony forming unit at 0.78 ug/ml measured upto 10 hrs in presence of 0.2 ug/ml Polymyxin B by LB agar medium method; type: functional; conditions: dose 0.78 µg/ml
Staphylococcus aureus [25] = experiment: Bactericidal activity against methicillin-resistant Staphylococcus aureus SA3 assessed as as reduction in colony forming unit at 0.1 to 0.4 ug/ml measured after 2 to 4 hrs by time-kill assay; type: functional, organism-based; conditions: dose 0.1-0.4 µg/ml, time 2-4 hrs
Staphylococcus aureus [26] = experiment: In vivo antibacterial activity against methicillin-resistant Staphylococcus aureus SA3 infected in dorsal thorax of Drosophila melanogaster strain Oregon R assessed as survival time of Drosophila at 0.2 mg/ml measured upto 72 hrs; type: functional
Staphylococcus aureus [27] = experiment: In vivo antibacterial activity against methicillin-resistant Staphylococcus aureus SA3 infected in dorsal thorax of Drosophila melanogaster strain Oregon R assessed as survival time of Drosophila at 0.04 mg/ml measured upto 72 hrs relative to control; type: functional, organism-based
Staphylococcus aureus [28] = experiment: In vivo antibacterial activity against methicillin-resistant Staphylococcus aureus SA3 infected in dorsal thorax of Drosophila melanogaster strain Oregon R assessed as median survival time of Drosophila at 0.04 to 0.2 mg/ml measured upto 72 hrs; type: functional; conditions: dose 0.04-0.2 mg/ml
Staphylococcus aureus [29] = experiment: Antibacterial activity against methicillin-resistant Staphylococcus aureus SA3 assessed as resistance by measuring antibacterial activity after 11 to 20 passages at 0.39 ug/ml by emergence of bacterial resistance assay; type: functional, organism-based; conditions: dose 0.39 µg/ml
Staphylococcus aureus [30] = experiment: Antibacterial activity against c5-resistant mutant of methicillin-resistant Staphylococcus aureus SA3 m6 assessed as resistance by measuring antibacterial activity after 20 passages at 200 ug/ml by emergence of bacterial resistance assay; type: functional, organism-based; conditions: dose 200.0 µg/ml
Staphylococcus aureus [31] = experiment: Antibacterial activity against methicillin-resistant Staphylococcus aureus SA3 assessed as absence of growth measured after 16 passages by emergence of bacterial resistance assay; type: functional
Staphylococcus aureus [32] = experiment: Antibacterial activity against c5-resistant mutant of methicillin-resistant Staphylococcus aureus SA3 m6 assessed as fold increase in MIC measured after 12 passages to MIC during first passage; type: functional

CCCCCCCCn1c2c([n+](Cc3ccccc3)c1C)C(=O)c1ccccc1C2=O.[Br-]
MIC (Staphylococcus aureus [1]): 0.39 µg/mL
MIC (Staphylococcus aureus [2]): 0.19 µg/mL
MIC (Staphylococcus aureus [3]): 6.25 µg/mL
MIC (Staphylococcus aureus [4]): 6.25 µg/mL
MIC (Staphylococcus aureus [5]): 6.25 µg/mL
IC50 at 72 h [6]: 293 nM
IC50 at 72 h [7]: 1060 nM
half-life at 2 µM [8]: 32 min
CLint scaled at 2 µM [9]: 39 mL/min/kg
Activity (Staphylococcus aureus [10]): inactive
Activity (Staphylococcus aureus [11]): inactive
Activity (Staphylococcus aureus [12]): inactive
Activity (Staphylococcus aureus [13]): inactive
Activity (Staphylococcus aureus [14]): inactive
Activity (Staphylococcus aureus [15]): inactive
Activity (Bacillus subtilis): Active
Activity (Staphylococcus aureus [16]): Active
Activity (Staphylococcus aureus [17]): Active
Activity (Staphylococcus aureus [18]): Active
Activity (Pseudomonas aeruginosa [19]): inactive
Activity (Escherichia coli [20]): inactive
Activity (Escherichia coli [21]): inactive
Activity (Pseudomonas aeruginosa [22]): >4 log10CFU/ml
Activity (Pseudomonas aeruginosa [23]): Tde
Activity (Escherichia coli [24]): 4 log10CFU/ml
Activity (Staphylococcus aureus [25]): inactive
Time (Staphylococcus aureus [26]): 62 h
Activity (Staphylococcus aureus [27]): Active
Time (Staphylococcus aureus [28]): 56 h
Activity (Staphylococcus aureus [29]): inactive
Activity (Staphylococcus aureus [30]): inactive
MIC (Staphylococcus aureus [31]): 1.56 µg/mL
fold change (FC) (Staphylococcus aureus [32]): 2
